Where two headings read alike, the source gives them in different places. Marks after values point to notes of the source that are not given here.
Legend:
[1] = test system: Colon 5776 (human colon carcinoma); test: Antitumour activity in human colon cancer xenograft Co5776, IP treatment; conditions: for Toxic deaths (d): 8 NCR:nu/nu female mice; for Optimum T/C [%] (volume of treated tumour versus control tumour): significant vs saline; for antitumour activity in terms of reductions in tumor growth (in words): FIG. 1
Source text: (§1) Human colon cancer Co5776 was inserted to Ncr:nu/nu female mice subcutaneously, and treatment started when tumors reached a mean volume of 100 mm^3.

[2] = test system: Colon 5776 (human colon carcinoma); conditions: mouse, in vivo, ip, 120 mg/kg
Source text: as §1

[3] = Maximum tolerated dose, administration every third day repeated five times; assay type: in vivo, mice; conditions: administered every third day
Source text: This is shown below by the experiments presented in table 1 and table 2 using different mice strains and also different human colon xenografts.

[4] = test system: Co6044 (human colon carcinoma); test: Antitumour activity in human colon cancer xenograft Co6044, IP treatment; conditions: for Toxic deaths (d): 8 mice; for Optimum T/C [%]: significant vs saline
Source text: (§2) Treatment started when the tumors reached a mean volume of 100 mm^3.

[5] = test system: Colon 6044 (human colon carcinoma)
[6] = test system: Co6044 (human colon carcinoma); conditions: mouse, in vivo, ip, 120 mg/kg
Source text: as §2

[7] = test system: Colon 6044 (human colon carcinoma); test: Antitumour activity in Co6044 after oral administration, different dosing schedules (Table 4); assay type: in vivo, mice; conditions: for Toxic deaths (d): 7 mice; for Optimum T/C [%] (on day): significant vs saline
Source text: Antitumour Activity of Elaidic Acid (5′)-Gemcitabine Ester in Co6044 After Oral Administration

[8] = IP 120 mg/kg, D8, 11, 14, 17, 20
[9] = IP 40 mg/kg, D8, 11, 14, 17, 20
[10] = Oral 10 mg/kg, D 7, 10, 13, 16, 19
[11] = Oral 15 mg/kg, D 7, 10, 13, 16, 19

Nc1ccn([C@@H]2O[C@H](CO)[C@@H](O)C2(F)F)c(=O)n1 [Gemcitabine, 2′,2′-difluorodeoxycytidine, reference compound]
Toxic deaths (d) ([1]; IP 120 mg/kg, D8, 11, 14, 17, 20, death on day 18): 1(18)
Optimum T/C [%] (volume of treated tumour versus control tumour) [1, 8]: 17* %
antitumour activity in terms of reductions in tumor growth (in words) ([1]; IP 120 mg/kg): high antitumour activity
BWC [%] (body weight change) [2]: −5%
maximum tolerated dose [3]: approximately 120 mg/kg per injection
antitumor effect (in words) ([4]; IP 120 mg/kg every third day for five times): Excellent antitumor effect
Toxic deaths (d) [4, 8]: 0
Optimum T/C [%] [4, 8]: 15* %
BWC [%] D 13 ([5]; mouse, in vivo, po, 120 mg/kg): −16%
BWC [%] D 13 ([5]; mouse, in vivo, po, 180 mg/kg): −22%
BWC [%] D 13 ([5]; mouse, in vivo, po, 240 mg/kg): −21%
BWC D 8-15 (body weight change) [6]: −3

CCCCCCCC/C=C/CCCCCCCC(=O)OC[C@H]1O[C@@H](n2ccc(N)nc2=O)C(F)(F)[C@@H]1O [Elaidic acid (5′)-gemcitabine ester, elaidic acid (5′)-gemcitabine ester]
BWC [%] (body weight change) [1, 9]: −4%
Toxic deaths (d) [1, 9]: 0
Optimum T/C [%] (volume of treated tumour versus control tumour) [1, 9]: 17* %
antitumour activity in terms of reductions in tumor growth (in words) ([1]; IP 40 mg/kg): high antitumour activity
BWC [%] ([7]; Oral 5 mg/kg, D 7-11): −3%
Toxic deaths (d) ([7]; Oral 5 mg/kg, D 7-11): 0
Optimum T/C [%] (on day) ([7]; Oral 5 mg/kg, D 7-11, optimum on day 28): 10(28)* %
BWC [%] [7, 10]: −1%
Toxic deaths (d) [7, 10]: 0
Optimum T/C [%] (on day) ([7]; Oral 10 mg/kg, D 7, 10, 13, 16, 19, optimum on day 24): 35(24)* %
BWC [%] ([7]; Oral 10 mg/kg, D 7-11): −5%
Toxic deaths (d) ([7]; Oral 10 mg/kg, D 7-11): 0
Optimum T/C [%] (on day) ([7]; Oral 10 mg/kg, D 7-11, optimum on day 17): 8(17)* %
BWC [%] [7, 11]: −1%
Toxic deaths (d) [7, 11]: 0
Optimum T/C [%] (on day) ([7]; Oral 15 mg/kg, D 7, 10, 13, 16, 19, optimum on day 24): 27(24)* %
BWC [%] ([7]; Oral 20 mg/kg, D 7, 10, 13, 16, 19): −3%
Toxic deaths (d) ([7]; Oral 20 mg/kg, D 7, 10, 13, 16, 19, death on day 17): 1(17)
Optimum T/C [%] (on day) ([7]; Oral 20 mg/kg, D 7, 10, 13, 16, 19, optimum on day 24): 16(24)* %
BWC [%] ([7]; Oral 50 mg/kg, D 7, 14): 0%
Toxic deaths (d) ([7]; Oral 50 mg/kg, D 7, 14): 0
Optimum T/C [%] (on day) ([7]; Oral 50 mg/kg, D 7, 14, optimum on day 17): 22(17)* %
BWC [%] ([7]; Oral 100 mg/kg, D 7, 14): −4%
Toxic deaths (d) ([7]; Oral 100 mg/kg, D 7, 14, death on day 20): 1(20)
Optimum T/C [%] (on day) ([7]; Oral 100 mg/kg, D 7, 14, optimum on day 24): 4(24)* %
activity after oral administration (in words) ([7]; oral, all tested schedules): High dose dependent activity
significance of antitumour activity (in words) ([7]; oral, all the tested schedules): Significant antitumour activity
maximum tolerated dose [3]: 40 mg/kg per injection
antitumor effect (in words) ([4]; IP 40 mg/kg every third day for five times): Excellent antitumor effect
Toxic deaths (d) [4, 9]: 0
BWC D 8-15 (body weight change) ([4]; IP 40 mg/kg, D8, 11, 14, 17, 20, D 8-15): −1
Optimum T/C [%] [4, 9]: 19* %
BWC [%] D 13 ([5]; Oral 40 mg/kg, Q3 × 5, D 13): −7%
Toxic deaths (d) ([5]; Oral 40 mg/kg, Q3 × 5, deaths on day 15): 2/8 (15)
Optimum T/C [%] (on day) ([5]; Oral 40 mg/kg, Q3 × 5, optimum on day 27, significant vs saline): 5(27)* %
Optimum T/C [%] (on day) ([5]; Oral 60 mg/kg, Q3 × 5): Toxic
BWC [%] D 13 ([5]; Oral 60 mg/kg, Q3 × 5, D 13): −9%
Toxic deaths (d) ([5]; Oral 60 mg/kg, Q3 × 5, deaths days 12-24): 6/8(12-24)
Optimum T/C [%] (on day) ([5]; Oral 80 mg/kg, Q3 × 5): Toxic
BWC [%] D 13 ([5]; Oral 80 mg/kg, Q3 × 5, D 13): −6%
Toxic deaths (d) ([5]; Oral 80 mg/kg, Q3 × 5, deaths days 16-22): 6/8(16-22)
activity and tolerability when given orally (in words) ([5]; oral, 40 mg/kg): highly active and tolerable
